{
  "source": "patent US8227513B2",
  "about": "“Food composition for binding acetaldehyde in mouth and in digestive track, and method for the preparation of the composition” (Biohit Oyj, priority 2005, dated 2012)",
  "test": "capability of cysteine to bind acetaldehyde from beers and yoghurts (gas chromatograph)",
  "conditions": "for acetaldehyde concentration after the treatment: incubated 5 min at room temperature",
  "method": "In the test, the capability of cysteine to bind acetaldehyde from light alcohol drinks and milk products, such as yoghurt, was examined. The amounts of acetaldehyde in four Finnish yoghurts and three beers were measured by means of a standardized method (Homann et al. 1997. High acetaldehyde levels in saliva after ethanol consumption: Methodological aspects and pathogenic implications. Carcinogenesis 18:1739-1743). The average acetaldehyde concentration (±SEM) in the beers was 146±30 μM. L-cysteine was added to the beers so that the final cysteine concentration of the product was 0 (the control), 0.1, 3 and 10 mM (i.e., 0 mg/l, 12.1 mg/l, 363 mg/l and 1210 mg/l); thereafter, the beers were incubated for 5 min at room temperature. Thereafter, the acetaldehyde contents were measured by means of a gas chromatograph. The acetaldehyde concentrations after the treatment were 146±30 μM, 133±32 μM, 26±9 μM and 10±3 μM, correspondingly. In the yoghurt, the acetaldehyde concentrations were 419±53 μM, on an average. L-cysteine was added so that the cysteine concentrations in the final product were 0 (the control), 0.1, 3 and 10 mM (i.e., 0 mg/l, 12.1 mg/l, 363 mg/l, and 1210 mg/l); thereafter, the yoghurts were incubated for 5 min at room temperature. The acetaldehyde concentrations after the treatment were 419±53 μM, 240±42 μM, 55±15 μM, and 15±2 μM.",
  "data": [
    {"compound": "N[C@@H](CS)C(=O)O", "note": "[L-cysteine]", "values": [
      {"measurement": "acetaldehyde concentration after the treatment", "setting": "beers (control 146±30 μM), final cysteine concentration 0.1 mM (12.1 mg/l), mean ±SEM", "value": "133 ± 32", "unit": "µM"},
      {"measurement": "acetaldehyde concentration after the treatment", "setting": "beers (control 146±30 μM), final cysteine concentration 3 mM (363 mg/l), mean ±SEM", "value": "26 ± 9", "unit": "µM"},
      {"measurement": "acetaldehyde concentration after the treatment", "setting": "beers (control 146±30 μM), final cysteine concentration 10 mM (1210 mg/l), mean ±SEM", "value": "10 ± 3", "unit": "µM"},
      {"measurement": "acetaldehyde in the products eliminated", "setting": "the products (beers and yoghurts), 3 mM of cysteine (363 mg/l)", "value": "over 80%"},
      {"measurement": "acetaldehyde concentration after the treatment", "setting": "yoghurts (control 419±53 μM), cysteine concentration 0.1 mM (12.1 mg/l)", "value": "240 ± 42", "unit": "µM"},
      {"measurement": "acetaldehyde concentration after the treatment", "setting": "yoghurts (control 419±53 μM), cysteine concentration 3 mM (363 mg/l)", "value": "55 ± 15", "unit": "µM"},
      {"measurement": "acetaldehyde concentration after the treatment", "setting": "yoghurts (control 419±53 μM), cysteine concentration 10 mM (1210 mg/l)", "value": "15 ± 2", "unit": "µM"}
    ]}
  ]
}
